“Also recorded” adds a separate entry of the source.
Assays:
[1] = test system: vitelline capillaries of chick embryo; experiment: chick embryo vitelline capillary regression assay; assay type: in vivo; set-up: key to vitelline capillary regression: +: Vascular reactivity; 0: No vascular reactivity; +/-: Equivocal reactivity; details: for Chick embryo diss. assay, Minimum Effective Concentration: Table II; for effect on vitelline capillaries / chick embryo: in vivo
Experimental: Using the chick embryo vitelline capillaries assay, compounds were tested for their ability to induce capillary regression. Each compound was applied in 0.1 ml of 15% Ficol 400 and PBS onto the embryo, and vascular regression was assessed after 60 minutes.
The 3-day chick embryo consists of an embryonic disc from which numerous vessels emerge and return, forming a "figure 8"-shaped structure--the embryo in the center with vascular loops extending outward over both poles. […] Following a lag period of around 15 minutes, the constriction of continuity between capillary and secondary vessels, generally on the "venous" side, was observed. Continued pulsatile blood flow progressed, resulting in a "swelling" of the blind tube, followed by a pinching off of the remaining connection and formation of an enclosed vascular sac resembling a "blood island." This process progressed until only the largest vessels remained intact.

[2] = test system: Xenopus tadpole (stage 59-60); experiment: Xenopus tadpole assay; assay type: in vivo, Xenopus laevis; details: for pharmacologic similarity in tadpole assay: in vivo
NHE3 = details: cited from earlier work
human melanoma = experiment: effect on growth of human melanoma (time course, apoptosis); assay type: cell-based

Compound | Chick embryo diss. assay, Minimum Effective Concentration [1] | other results
CC(C)CCCC(C)[C@H]1CCC2C3CC[C@H]4C[C@@H](NCCCNCCCCN)CC[C@]4(C)C3CC[C@@]21C (stereo partly shown) | > 10 µg | 
CC(CCC(=O)O)[C@H]1CCC2C3CC[C@H]4C[C@H](NCCCNCCCCN)CC[C@]4(C)C3CC[C@@]21C (stereo partly shown) | > 10 µg | 
CC(CCC(=O)O)[C@H]1CCC2C3CC[C@H]4C[C@@H](NCCCNCCCCN)CC[C@]4(C)C3CC[C@@]21C (stereo partly shown) | 0.001 µg | 
CC(C)CCCC(C)[C@H]1CCC2C3C(CC[C@@]21C)[C@@]1(C)CC[C@@H](NCCCNCCCCN)C[C@@H]1C[C@H]3O (stereo partly shown) | > 10 µg | 
CC(C)CCCC(C)[C@H]1CCC2C3C(CC[C@@]21C)[C@@]1(C)CC[C@H](NCCCNCCCCN)C[C@@H]1C[C@H]3O (stereo partly shown) | 1 to 10 µg | 
COC(=O)CCC(C)[C@H]1CCC2C3C(CC[C@@]21C)[C@@]1(C)CC[C@H](NCCCNCCCCNCCCN)C[C@@H]1C[C@H]3O (stereo partly shown) | 10 µg | 
CC(CCC(=O)O)[C@H]1CCC2C3C(CC[C@@]21C)[C@@]1(C)CC[C@H](NCCCNCCCCNCCCN)C[C@@H]1C[C@H]3O (stereo partly shown) | 1 µg | 
COC(=O)CCC(C)[C@H]1CCC2C3C(CC[C@@]21C)[C@@]1(C)CC[C@H](NCCN)C[C@H]1C[C@H]3O (stereo partly shown) | > 1 µg | 
COC(=O)CCC(C)[C@H]1CCC2C3C(CC[C@@]21C)[C@@]1(C)CC[C@@H](NCCN)C[C@H]1C[C@H]3O (stereo partly shown) | 0.01 µg | 
CC(CCC(=O)O)[C@H]1CCC2C3C(CC[C@@]21C)[C@@]1(C)CC[C@H](NCCCNCCCCN)C[C@@H]1C[C@H]3O (stereo partly shown) | > 10 µg | 
CC(C)CCCC(C)[C@H]1CCC2C3CC[C@H]4C[C@H](NCCCN5CCCCN=C5N)CC[C@]4(C)C3CC[C@@]21C (stereo partly shown) | > 10 µg | 
COC(=O)CCC(C)[C@H]1CCC2C3CC[C@H]4C[C@@H](NCCCNCCCCNCCCN)CC[C@]4(C)C3CC[C@@]21C (stereo partly shown) | > 1 µg | 
COC(=O)CCC(C)[C@H]1CCC2C3C[C@@H](O)[C@H]4C[C@@H](NCCCNCCCCNCCCN)CC[C@]4(C)C3CC[C@@]21C (stereo partly shown) | 1 µg | 
COC(=O)CCC(C)[C@H]1CCC2C3C[C@@H](O)[C@H]4C[C@H](NCCN)CC[C@]4(C)C3CC[C@@]21C (stereo partly shown) | > 1 µg | 
COC(=O)CCC(C)[C@H]1CCC2C3C[C@@H](O)[C@H]4C[C@@H](NCCN)CC[C@]4(C)C3CC[C@@]21C (stereo partly shown) | > 1 µg | 
CC(CCC(=O)O)[C@H]1CCC2C3C[C@@H](O)[C@H]4C[C@@H](NCCN)CC[C@]4(C)C3CC[C@@]21C (stereo partly shown) | 1 µg | 

Compound | Chick embryo diss. assay, Minimum Effective Concentration [1] | other results
COC(=O)CCC(C)[C@H]1CCC2C3CC[C@@H]4C[C@H](NCCCNCCCCNCCCN)CC[C@]4(C)C3CC[C@@]21C (stereo partly shown) | > 1 µg | 
COC(=O)CCC(C)[C@H]1CCC2C3C(CC[C@@]21C)[C@@]1(C)CC[C@H](NCCCNCCCCNCCCN)C[C@H]1C[C@H]3O (stereo partly shown) | > 1 µg | 
CC(CCC(=O)O)[C@H]1CCC2C3C(CC[C@@]21C)[C@@]1(C)CC[C@@H](NCCCNCCCCNCCCN)C[C@H]1C[C@H]3O (stereo partly shown) | 1 µg | 
CC(CCC(=O)O)[C@H]1CCC2C3C(CC[C@@]21C)[C@@]1(C)CC[C@H](NCCCNCCCCNCCCN)C[C@H]1C[C@H]3O (stereo partly shown) | > 1 µg | 
CC(CCC(=O)O)[C@H]1CCC2C3C(CC[C@@]21C)[C@@]1(C)CC[C@@H](NCCN)C[C@H]1C[C@H]3O (stereo partly shown) | > 1 µg | 
CC(CCC(=O)O)[C@H]1CCC2C3C(CC[C@@]21C)[C@@]1(C)CC[C@H](NCCN)C[C@H]1C[C@H]3O (stereo partly shown) | > 1 µg | 
COC(=O)CCC(C)[C@H]1CCC2C3CC[C@@H]4C[C@H](NCCN)CC[C@]4(C)C3C[C@H](O)[C@@]21C (stereo partly shown) | > 1 µg | 
CC(COS(=O)(=O)O)C(=O)CCC(C)[C@H]1CCC2C3C(CC[C@@]21C)[C@@]1(C)CC[C@H](NCCCNCCCCN)C[C@@H]1C[C@H]3O (stereo partly shown) | > 10 µg | 
CC(COS(=O)(=O)O)C(=O)CC[C@@H](C)[C@H]1CC[C@H]2[C@@H]3[C@H](O)C[C@H]4C[C@@H](NCCCNCCCCN)CC[C@]4(C)[C@H]3CC[C@]12C (single isomer, unassigned) [Compound 1360] |  | effect on vitelline capillaries / chick embryo [1]: the blood circulating through the embryonic vessels exhibited a brighter red color; tadpole response ([2]; 10 μg/ml, about 1 hour): Swelling and lysis of certain erythrocytes occurred; also recorded: extensive vasocclusion occurred within 60 minutes throughout the tail
N=C(N)NC(=O)c1nc(Cl)c(N)nc1N [Amiloride, amiloride] |  | effect on NHE3 kinetics (Km, Vmax) (NHE3): affected only Vmax
CC(C)CCC[C@@H](C)[C@H]1CC[C@H]2[C@@H]3CC[C@H]4C[C@@H](NCCCNCCCCNCCCN)CC[C@]4(C)[C@H]3CC[C@]12C [Compound 353] |  | effect on vitelline capillaries / chick embryo [1]: no effect on the chick embryo capillary bed; mechanism of cell death (human melanoma): apoptotic cell death has been induced; time dependence of effect on growth of melanoma (human melanoma; FIG. 17A): most pronounced over 48 hours
COC(=O)CC[C@@H](C)[C@H]1CC[C@H]2[C@@H]3[C@H](O)C[C@@H]4C[C@@H](NCCCNCCCCNCCCN)CC[C@]4(C)[C@H]3CC[C@]12C [Compound 411] |  | vitelline capillary regression ([1]; 0.1 μg applied, 60 min): 0
C[C@H](CCC(=O)O)[C@H]1CC[C@H]2[C@@H]3[C@H](O)C[C@@H]4C[C@H](NCCN)CC[C@]4(C)[C@H]3CC[C@]12C [Compound 414] |  | pharmacologic similarity in tadpole assay [2]: pharmacologic activity similar to Fraction 1
C[C@H](CCC(=O)O)[C@H]1CC[C@H]2[C@@H]3[C@H](O)C[C@@H]4C[C@@H](NCCN)CC[C@]4(C)[C@H]3CC[C@]12C [Compound 415] |  | effect on vitelline capillaries / chick embryo [1]: especially active
CC(C)CCC[C@@H](C)[C@H]1CC[C@H]2[C@@H]3[C@H](O)C[C@H]4C[C@H](N)CC[C@]4(C)[C@H]3CC[C@]12C [Compound 1363] |  | pharmacologic similarity in tadpole assay [2]: pharmacologic activity similar to Fraction 1

Source: patent US5874597A, “Certain aminosterol compounds and pharmaceutical compositions including these compounds” (priority 1995, dated 1999)
